Consider two compounds from ChEMBL document CHEMBL4339181, “Kinase and Histone Deacetylase Hybrid Inhibitors for Cancer Therapy” (J Med Chem, 2019).

The target of data set [1] is T1, Histone deacetylase 8 (Homo sapiens, UniProt Q9BY41).
T1 sequence (Q9BY41 whole entry): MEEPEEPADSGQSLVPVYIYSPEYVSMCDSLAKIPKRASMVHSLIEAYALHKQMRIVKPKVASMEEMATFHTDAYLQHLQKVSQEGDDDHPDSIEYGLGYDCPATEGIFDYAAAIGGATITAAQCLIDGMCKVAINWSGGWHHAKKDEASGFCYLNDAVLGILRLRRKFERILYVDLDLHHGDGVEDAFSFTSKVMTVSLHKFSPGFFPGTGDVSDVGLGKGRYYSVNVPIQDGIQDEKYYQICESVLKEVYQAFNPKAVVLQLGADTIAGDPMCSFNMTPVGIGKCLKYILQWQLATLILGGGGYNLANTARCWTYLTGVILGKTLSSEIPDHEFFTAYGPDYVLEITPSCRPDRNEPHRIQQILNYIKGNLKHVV
Description: Inhibition of HDAC8 (unknown origin)

Data set [2] concerns the target T2, Protein deacetylase HDAC6 (Homo sapiens, UniProt Q9UBN7).
T2 sequence (Q9UBN7 whole entry): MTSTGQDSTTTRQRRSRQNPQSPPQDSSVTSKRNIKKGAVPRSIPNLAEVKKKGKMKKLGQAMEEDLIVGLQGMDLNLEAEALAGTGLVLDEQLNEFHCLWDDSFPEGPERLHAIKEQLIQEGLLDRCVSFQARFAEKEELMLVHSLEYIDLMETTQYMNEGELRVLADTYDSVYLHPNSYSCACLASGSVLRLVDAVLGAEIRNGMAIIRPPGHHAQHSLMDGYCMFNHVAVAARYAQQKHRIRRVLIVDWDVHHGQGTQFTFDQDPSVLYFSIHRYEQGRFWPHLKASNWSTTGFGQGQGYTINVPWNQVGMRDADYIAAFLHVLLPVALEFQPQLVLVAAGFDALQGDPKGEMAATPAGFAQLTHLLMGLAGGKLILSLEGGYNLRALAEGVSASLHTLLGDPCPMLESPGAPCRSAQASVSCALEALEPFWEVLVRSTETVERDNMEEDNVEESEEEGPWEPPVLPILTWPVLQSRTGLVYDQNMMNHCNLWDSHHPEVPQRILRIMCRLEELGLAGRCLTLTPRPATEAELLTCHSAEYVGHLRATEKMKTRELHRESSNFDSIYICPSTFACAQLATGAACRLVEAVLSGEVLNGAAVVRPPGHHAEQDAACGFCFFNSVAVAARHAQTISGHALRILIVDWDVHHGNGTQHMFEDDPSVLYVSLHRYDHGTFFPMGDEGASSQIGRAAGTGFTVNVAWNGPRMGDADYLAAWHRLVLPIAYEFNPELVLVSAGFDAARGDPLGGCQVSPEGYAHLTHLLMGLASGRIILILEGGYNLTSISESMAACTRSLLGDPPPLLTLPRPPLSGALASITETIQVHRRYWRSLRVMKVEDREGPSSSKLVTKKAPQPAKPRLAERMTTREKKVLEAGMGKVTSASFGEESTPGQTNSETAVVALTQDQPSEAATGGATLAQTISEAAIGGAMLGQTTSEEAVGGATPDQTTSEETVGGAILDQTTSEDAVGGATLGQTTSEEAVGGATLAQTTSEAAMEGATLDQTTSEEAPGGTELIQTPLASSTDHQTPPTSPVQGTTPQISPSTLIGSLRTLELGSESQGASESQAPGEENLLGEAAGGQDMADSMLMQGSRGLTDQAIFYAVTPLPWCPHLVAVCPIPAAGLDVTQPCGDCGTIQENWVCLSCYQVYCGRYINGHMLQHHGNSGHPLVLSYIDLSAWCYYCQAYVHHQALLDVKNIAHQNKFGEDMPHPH
Description: Inhibition of HDAC6 (unknown origin)

The target of data set [3] is Histone deacetylase 9 (Homo sapiens, UniProt Q9UKV0). Put plainly: Inhibition of HDAC9 (unknown origin).
Data set [4] has as its target Histone deacetylase 5 (Homo sapiens, UniProt Q9UQL6). Briefly: Inhibition of HDAC5 (unknown origin).
Data set [5] can be described thus: Toxicity in patient with advanced solid tumor assessed as transient reversible nausea administered as 1 hr iv infusion for 5 consecutive days every 2 weeks relative to control. Type of data set: organism-based. Particulars: human, in vivo; call rule not given here.
In data set [6] the test system is HepG2. Briefly: Antitumor activity against human HepG2 cells xenografted in nu/nu CD-1 mouse assessed as tumor regression at 120 mg/kg, iv administered daily relative to control. Type of data set: functional. Background: In xenograft studies the graft and the host belong to different species.
Data set [7] is described as follows: Toxicity in patient with advanced solid tumor administered as 1 hr iv infusion for 5 consecutive days every 2 weeks. Particulars: human, in vivo. Type of data set: organism-based.
The nature of data set [8]: Toxicity in patient with advanced solid tumor assessed as dry skin administered as 1 hr iv infusion for 5 consecutive days every 2 weeks relative to control. Type of data set: organism-based. Particulars: human, in vivo.
Data set [9] in a line: Toxicity in patient with advanced solid tumor assessed as serum AST elevation administered as 1 hr iv infusion for 5 consecutive days every 2 weeks relative to control. Particulars: human, in vivo. Type of data set: organism-based.
The nature of data set [10]: Toxicity in patient with advanced solid tumor assessed as serum creatinine elevation administered as 1 hr iv infusion for 5 consecutive days every 2 weeks relative to control. Type of data set: organism-based. Particulars: human, in vivo.
Data set [11] is described as follows: Toxicity in patient with advanced solid tumor assessed as fatigue administered as 1 hr iv infusion for 5 consecutive days every 2 weeks relative to control. Type of data set: organism-based. To be noted: human, in vivo.

Chain of Histone deacetylase 5 (Q9UQL6 whole entry, the tested form may be a part): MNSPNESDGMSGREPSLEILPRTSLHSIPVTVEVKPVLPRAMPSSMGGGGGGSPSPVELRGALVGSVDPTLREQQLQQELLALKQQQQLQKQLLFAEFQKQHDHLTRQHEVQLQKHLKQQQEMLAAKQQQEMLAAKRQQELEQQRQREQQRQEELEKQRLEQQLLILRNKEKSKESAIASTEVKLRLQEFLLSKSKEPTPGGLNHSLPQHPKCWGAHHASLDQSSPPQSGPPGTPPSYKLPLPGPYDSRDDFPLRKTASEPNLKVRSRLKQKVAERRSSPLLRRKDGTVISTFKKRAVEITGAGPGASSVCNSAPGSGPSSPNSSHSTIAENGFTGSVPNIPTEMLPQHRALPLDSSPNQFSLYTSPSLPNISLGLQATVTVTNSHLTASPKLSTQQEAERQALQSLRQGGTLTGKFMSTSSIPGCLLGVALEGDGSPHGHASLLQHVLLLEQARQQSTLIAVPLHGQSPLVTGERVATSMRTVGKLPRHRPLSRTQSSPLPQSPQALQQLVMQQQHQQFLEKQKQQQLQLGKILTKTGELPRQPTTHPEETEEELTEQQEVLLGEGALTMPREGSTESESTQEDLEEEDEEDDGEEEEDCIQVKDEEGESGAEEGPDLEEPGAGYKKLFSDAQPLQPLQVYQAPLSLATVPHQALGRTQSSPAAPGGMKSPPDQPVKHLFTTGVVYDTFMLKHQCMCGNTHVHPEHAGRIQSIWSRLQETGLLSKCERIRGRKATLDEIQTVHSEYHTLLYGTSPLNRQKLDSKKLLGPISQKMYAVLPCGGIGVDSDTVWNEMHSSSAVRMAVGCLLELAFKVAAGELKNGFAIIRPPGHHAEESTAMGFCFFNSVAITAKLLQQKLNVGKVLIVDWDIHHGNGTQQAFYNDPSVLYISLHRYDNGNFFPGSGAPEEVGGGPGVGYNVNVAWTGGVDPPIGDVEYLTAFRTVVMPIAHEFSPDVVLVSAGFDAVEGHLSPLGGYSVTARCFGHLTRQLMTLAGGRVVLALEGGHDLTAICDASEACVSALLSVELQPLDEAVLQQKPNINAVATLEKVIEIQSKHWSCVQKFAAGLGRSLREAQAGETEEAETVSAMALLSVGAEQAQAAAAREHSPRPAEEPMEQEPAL
Chain of Histone deacetylase 9 (Q9UKV0 whole entry): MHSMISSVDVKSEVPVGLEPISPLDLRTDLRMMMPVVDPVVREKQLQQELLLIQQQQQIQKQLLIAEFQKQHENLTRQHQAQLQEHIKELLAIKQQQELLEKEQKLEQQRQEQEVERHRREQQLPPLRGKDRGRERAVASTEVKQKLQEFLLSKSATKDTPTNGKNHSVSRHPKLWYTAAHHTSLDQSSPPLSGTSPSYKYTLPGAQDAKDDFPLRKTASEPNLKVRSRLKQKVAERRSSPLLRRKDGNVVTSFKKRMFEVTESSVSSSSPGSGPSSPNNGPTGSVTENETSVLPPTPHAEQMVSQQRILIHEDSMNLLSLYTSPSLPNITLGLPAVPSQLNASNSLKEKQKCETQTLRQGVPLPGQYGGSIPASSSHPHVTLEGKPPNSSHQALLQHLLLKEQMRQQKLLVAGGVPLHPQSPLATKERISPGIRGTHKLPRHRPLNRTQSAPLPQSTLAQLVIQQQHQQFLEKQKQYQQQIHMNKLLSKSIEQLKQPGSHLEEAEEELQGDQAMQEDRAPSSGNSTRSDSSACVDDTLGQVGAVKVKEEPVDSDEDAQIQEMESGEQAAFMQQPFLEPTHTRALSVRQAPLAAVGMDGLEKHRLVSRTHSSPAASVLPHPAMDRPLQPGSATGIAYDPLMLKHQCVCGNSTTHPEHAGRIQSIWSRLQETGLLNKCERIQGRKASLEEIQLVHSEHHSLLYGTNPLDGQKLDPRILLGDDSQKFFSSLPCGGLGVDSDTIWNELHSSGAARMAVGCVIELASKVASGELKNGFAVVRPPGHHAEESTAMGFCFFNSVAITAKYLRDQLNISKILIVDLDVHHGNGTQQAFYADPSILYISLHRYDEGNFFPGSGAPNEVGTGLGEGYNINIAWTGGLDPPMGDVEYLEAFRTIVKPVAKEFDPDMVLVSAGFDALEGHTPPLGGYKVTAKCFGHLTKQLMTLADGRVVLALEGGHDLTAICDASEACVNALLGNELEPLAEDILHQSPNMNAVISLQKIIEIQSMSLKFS

Consider `O=C(CCCCCCC(=O)Nc1ccccc1)NO` [VORINOSTAT], for which the IC50 entry in data set [1], in data set [2], in data set [3] and in [4] was “Not Active” each time.

With `C#Cc1cccc(Nc2ncnc3cc(OC)c(OCCCCCCC(=O)NO)cc23)c1` [CUDC-101], the Activity came out at 24% in [5]; 30% in data set [6]; 16% in data set [8]; 12% in [9]; 12% in [10]; 24% in data set [11]. Further, the MTD in data set [7] is reported as 275 mg/m2.
